Blank lines part the entries; values can stand above or below the compound they belong to.
Key:
Conditions in all cases: stereoisomer not certain
[1] = RP, Agilent InfinityLab Poroshell 120 EC-C18, 100 × 3 mm, 2.7 µm, 25 °C, 0.4 mL/min, estimated dead time 1.1 min; A: water + 0.1% formic acid, pH 3; B: acetonitrile + 0.1% formic acid, pH 3; gradient (min/%B) 0/5 10/25 20/40 24/90 25/90 26/5 30/5
[2] = RP, Waters ACQUITY UPLC HSS T3, 100 × 2.1 mm, 1.8 µm, 30 °C, 0.4 mL/min, estimated dead time 0.55 min; A: water + 0.1% formic acid, pH 3; B: acetonitrile + 0.1% formic acid, pH 3; gradient (min/%B) 0/0 2/0 15/100 22/100 22.1/0 26/0
[3] = RP, Waters ACQUITY UPLC BEH Shield RP18, 100 × 2.1 mm, 1.7 µm, 30 °C, 0.6 mL/min, estimated dead time 0.37 min; A: water + 0.1% formic acid, pH 3; B: acetonitrile + 0.1% formic acid, pH 3; gradient (min/%B) 0/0 2/0 7/10 22/95 22.1/0 26/0
[4] = RP, Phenomenex Luna Omega Polar C18, 100 × 2.1 mm, 1.6 µm, 40 °C, 0.5 mL/min, estimated dead time 0.44 min; A: water + 0.1% formic acid + 10 mM ammonium formate; B: acetonitrile; gradient (min/%B) 0/5 8/20 10/100 12/100 12.1/5 14/5
[5] = RP, 50 × 0.5 mm, 2.7 µm, 35 °C, 0.01 mL/min, estimated dead time 0.62 min; A: water + 0.1% formic acid, pH 3; B: acetonitrile + 0.1% formic acid, pH 3; gradient (min/%B) 0/5 12/95 14/95 16/5
[6] = RP, Agilent ZORBAX Eclipse XDB-C18, 100 × 2.1 mm, 1.8 µm, 50 °C, 0.4 mL/min, estimated dead time 0.55 min; A: water + 0.1% formic acid, pH 3; B: methanol + 0.1% formic acid, pH 3; gradient (min/%B) 0/2 10/100 14.5/100 14.51/2 16.5/2
[7] = RP, Waters ACQUITY UPLC BEH Shield RP18, 150 × 2.1 mm, 1.7 µm, 40 °C, 0.4 mL/min, estimated dead time 0.83 min; A: water + 0.1% formic acid, pH 3; B: acetonitrile + 0.1% formic acid, pH 3; gradient (min/%B) 0/0 30/50 31/100 37/100 37.1/0
[8] = RP, Phenomenex Synergi Hydro-RP, 150 × 2 mm, 4 µm, 30 °C, 0.5 mL/min, estimated dead time 0.6 min; A: water + 0.1% formic acid, pH 3; B: acetonitrile + 0.1% formic acid, pH 3; gradient (min/%B) 0/5 1/5 35/45 40/100 45/100
[9] = RP, Phenomenex Luna C18, 150 × 4.6 mm, 3 µm, 25 °C, 0.5 mL/min, estimated dead time 3.2 min; A: water + 0.1% formic acid, pH 3; B: acetonitrile + 0.1% formic acid, pH 3; gradient (min/%B) 0/0 30/30 35/40 50/80 52/80 60/0 65/0
[10] = RP, Phenomenex Luna Omega Polar C18, 100 × 2.1 mm, 1.6 µm, 40 °C, 0.5 mL/min, estimated dead time 0.44 min; A: water + 0.5% formic acid; B: acetonitrile + 0.5% formic acid; gradient (min/%B) 0/5 3/50 3.1/100 5/100 5.1/5 7/5
[11] = RP, Waters ACQUITY UPLC BEH C18, 100 × 2.1 mm, 1.7 µm, 65 °C, 0.4 mL/min, estimated dead time 0.55 min; A: water + 0.1% formic acid, pH 3; B: 80% acetonitrile + 20% acetone + 0.1% formic acid, pH 3; gradient (min/%B) 0/0 5/100 5.5/0 6/0
[12] = Other, Phenomenex Kinetex PFP, 100 × 4.6 mm, 5 µm, 45 °C, 0.6 mL/min, estimated dead time 1.8 min; A: water + 0.1% trifluoroacetic acid, pH 2; B: methanol; gradient (min/%B) 0/40 20/72 21/40
[13] = RP, Waters ACQUITY UPLC HSS T3, 100 × 2.1 mm, 50 °C; A: water + 0.1% formic acid, pH 3; B: 30% methanol + 70% acetonitrile + 0.1% formic acid, pH 3; gradient (min/%B) 0/5 1/8 2/15 3/40 4/70 4.5/100 5/100 6.4/100 6.6/5 6.8/5 7/5
[14] = RP, Phenomenex Synergi Hydro-RP, 250 × 2 mm, 4 µm, 25 °C, 0.2 mL/min, estimated dead time 2.5 min; A: water + 0.1% formic acid, pH 3; B: acetonitrile + 0.1% formic acid, pH 3; gradient (min/%B) 0/0.5 7/0.5 12/12.5 25/16.3 47/35 48/65 50/65 50.1/0.5
[15] = RP, Agilent ZORBAX RRHD Eclipse Plus C18, 50 × 2.1 mm, 1.8 µm, 30 °C, 0.4 mL/min, estimated dead time 0.28 min; A: water + 0.1% formic acid, pH 3; B: acetonitrile + 0.1% formic acid, pH 3; gradient (min/%B) 0/1 5/10 8/25 9.1/99 10/99 12/99
[16] = RP, Agilent ZORBAX RRHD Eclipse Plus C18, 50 × 2.1 mm, 1.8 µm, 30 °C, 0.4 mL/min, estimated dead time 0.28 min; A: water + 0.1% formic acid, pH 3; B: acetonitrile + 0.1% formic acid, pH 3; gradient (min/%B) 0/1 5/10 8/25 9.1/99 10/99 12/1
[17] = RP, Waters Atlantis T3, 100 × 2.1 mm, 3 µm, 40 °C, 0.3 mL/min, estimated dead time 0.73 min; A: water + 0.1% trifluoroacetic acid, pH 2; B: acetonitrile + 0.1% trifluoroacetic acid, pH 2; gradient (min/%B) 0/10 1/10 6/40 7/50 8/50 14/70 16/80 20/10 25/10
[18] = RP, Phenomenex Kinetex EVO C18, 100 × 2.1 mm, 2.6 µm, 40 °C, 0.4 mL/min, estimated dead time 0.55 min; A: water + 0.2% formic acid; B: acetonitrile + 0.2% formic acid; gradient (min/%B) 0/5 0.5/5 7/95 8/95 8.5/5 12/5

SMILES: COc1cc(CC2COC(c3ccc(O)c(OC)c3)C2CO)ccc1O (single isomer, unassigned; (+)) [(+)-Lariciresinol]
LC retention time [1]: 12.1 min
LC retention time [2]: 10.2 min
LC retention time [3]: 13.5 min
LC retention time [4]: 9.31 min
LC retention time [5]: 5.08 min
LC retention time [6]: 5.5 min
LC retention time [7]: 15 min
LC retention time [8]: 19.4 min
LC retention time [9]: 32.2 min
LC retention time [10]: 2.68 min
LC retention time [11]: 2.48 min

SMILES: COc1cc(C2Oc3c(O)cc(-c4oc5cc(O)cc(O)c5c(=O)c4O)cc3C2CO)ccc1O (stereo not drawn) [2,3-Dehydrosilychristin A]
LC retention time [12]: 17.5 min

SMILES: O=C(O)C=Cc1ccc(O)cc1O [2,4-Dihydroxycinnamic acid]
LC retention time [13]: 3.08 min
LC retention time [12]: 5.73 min

SMILES: O=C(O)c1cccc(O)c1 [3-Hydroxybenzoic acid]
LC retention time [14]: 22.7 min
LC retention time [15]: 4.26 min
LC retention time [16]: 5.36 min
LC retention time [17]: 5.01 min
LC retention time [12]: 5.57 min

SMILES: Cc1ccc(O)c(OS(=O)(=O)O)c1 [4-Methylcatechol monosulfate]
LC retention time [12]: 4.92 min

SMILES: COc1c(O)cc(C(=O)O)cc1OS(=O)(=O)O [4-O-methylgallic acid 3-O-sulfate]
LC retention time [1]: 3.61 min
LC retention time [2]: 7.32 min
LC retention time [3]: 10.4 min
LC retention time [4]: 1.78 min
LC retention time [5]: 1.84 min
LC retention time [6]: 2.27 min
LC retention time [15]: 1.15 min
LC retention time [8]: 5.32 min
LC retention time [16]: 3.6 min
LC retention time [9]: 11.7 min
LC retention time [10]: 1.41 min

SMILES: Cc1ccc(O)c(O)c1 [4-methylcatechol]
LC retention time [12]: 6.24 min

SMILES: CCCCCCCCCCCCCCCCCc1cc(O)cc(O)c1 [Alkylresorcinol C17:0]
LC retention time [2]: 20.3 min
LC retention time [4]: 11.1 min
LC retention time [5]: 13.3 min
LC retention time [6]: 11.1 min
LC retention time [10]: 4.6 min

SMILES: CCCCCCCCCCCCCCCCCCCCCCCCCc1cc(O)cc(O)c1 [Alkylresorcinol C25:0]
LC retention time [4]: 11 min
LC retention time [6]: 13 min
LC retention time [10]: 5.12 min

SMILES: O=C1c2c(O)cc(O)cc2OC(c2cc(O)c(OS(=O)(=O)O)c(O)c2)C1O (stereo not drawn) [Ampelopsin-4-O-sulfate]
LC retention time [12]: 7.54 min

SMILES: O=S(=O)(O)Oc1ccccc1O [Catechol O-sulfate]
LC retention time [1]: 4.22 min
LC retention time [4]: 1.79 min
LC retention time [6]: 2.1 min
LC retention time [7]: 7.99 min
LC retention time [13]: 2.26 min
LC retention time [15]: 1.45 min
LC retention time [8]: 4.29 min
LC retention time [16]: 2.95 min
LC retention time [9]: 18.2 min

SMILES: OCCc1ccc(O)c(O)c1 [Hydroxytyrosol]
LC retention time [1]: 3.8 min
LC retention time [2]: 7.27 min
LC retention time [4]: 2.05 min
LC retention time [5]: 1.67 min
LC retention time [6]: 2.44 min
LC retention time [7]: 3.26 min
LC retention time [9]: 8.55 min

SMILES: O=c1c(OC2OC(CO)C(O)C(O)C2O)c(-c2ccc(OS(=O)(=O)O)c(O)c2)oc2cc(O)cc(O)c12 (stereo not drawn) [Isoquercitrin 4-O-sulfate]
LC retention time [12]: 7.77 min

SMILES: O=c1cc(-c2ccc(O)c(OS(=O)(=O)O)c2)oc2cc(O)cc(O)c12 [Luteolin 3-sulfate]
LC retention time [12]: 16.4 min

SMILES: O=c1cc(-c2ccc(OS(=O)(=O)O)c(O)c2)oc2cc(O)cc(O)c12 [Luteolin 4-sulfate]
LC retention time [12]: 17.1 min

SMILES: O=c1cc(-c2ccc(OS(=O)(=O)O)c(O)c2)oc2cc(OS(=O)(=O)O)cc(O)c12 [Luteolin 7,4-disulfate]
LC retention time [12]: 11.9 min

Other lines, results leading:

LC retention time [12]: 15.2 min
SMILES: O=c1c(O)c(-c2cc(O)c(OS(=O)(=O)O)c(O)c2)oc2cc(O)cc(O)c12 [Myricetin 4-O-sulfate]

LC retention time [12]: 2.9 min
SMILES: Oc1cc(O)cc(O)c1 [Phloroglucinol]

LC retention time [12]: 9.23 min
SMILES: O=c1c(OC2OC(CO)C(O)C(O)C2O)c(-c2ccc(O)c(O)c2)oc2cc(O)cc(O)c12 (stereo not drawn) [Quercetin-3-O-glucoside]

LC retention time [12]: 10.3 min
SMILES: COc1cc(C2Oc3c(O)cc(C4Oc5cc(O)cc(O)c5C(=O)C4O)cc3C2CO)ccc1O (stereo not drawn) [Silychristin]

LC retention time [12]: 21.5 min
SMILES: COc1cc(C2C3C=C(C4Oc5cc(O)cc(O)c5C(=O)C4O)C4C2COC4(O)C3=O)ccc1O (stereo not drawn) [Silydianin]

LC retention time [1]: 13.1 min
LC retention time [18]: 5.59 min
LC retention time [2]: 10.6 min
LC retention time [3]: 14.9 min
LC retention time [4]: 9.38 min
LC retention time [5]: 5.33 min
LC retention time [6]: 5.95 min
LC retention time [7]: 18.4 min
LC retention time [9]: 35.8 min
LC retention time [10]: 3.08 min
SMILES: O=c1oc2cc(O)ccc2c2ccc(O)cc12 [Urolithin A]

LC retention time [2]: 18.1 min
LC retention time [3]: 22.7 min
LC retention time [4]: 10.9 min
LC retention time [5]: 11.2 min
LC retention time [6]: 10.7 min
LC retention time [7]: 34.2 min
LC retention time [10]: 1.8 min
SMILES: CC1CCC2(C(=O)O)CCC3(C)C(=CCC4C5(C)CCC(O)C(C)(C)C5CCC43C)C2C1C (stereo not drawn) [Ursolic acid]

Source: the RepoRT retention time repository (doi:10.1016/j.foodchem.2021.129757)
